Reference: the OligoGym collection
Where “and” joins values, the source holds several entries; their conditions need not be identical. Equal entries are not always repeated. After the bases stand the sugars from the 5' end (letter, count) and the backbone: PS all phosphorothioate, else s phosphorothioate and o phosphodiester by linkage. Methylation of C is not given here. e = 2'-O-(2-methoxyethyl) (MOE); k = constrained ethyl (cEt); d = 2'-deoxy (DNA)

The sequences below were run against IRF4. Details: ASO, MM.1R, 1 µM.

Row | Sequence | target mRNA inhibition
1 | TTTATGTTAGCCAATT (sugars kddddddddddkekek, PS) | 0% and -12%
2 | TTTATGTTAGCCAATT (sugars kkdddddddddekeke, PS) | 12% and -13%
3 | TTTCTAATGGTGCTCC (sugars k3 d10 k3, PS) | 4%
4 | TTTCTACAAGGTCTGA (sugars k3 d10 k3, PS) | 3%

Same assay, conditions: ASO, SK-MEL-28, 4 µM

Row | Sequence | target mRNA inhibition
5 | TTTACCTGGTATTGCT (sugars k3 d10 k3, PS) | 38%
6 | TTTATAACCGGTAGAG (sugars k3 d10 k3, PS) | 54%
7 | TTTGTACGGGTCTGAG (sugars k3 d10 k3, PS) | 20%
8 | TTTTACCTGGTATTGC (sugars k3 d10 k3, PS) | -2%
9 | TTTTTAGTTCATACCC (sugars k3 d10 k3, PS) | 41%
10 | TTTTTCTCACCATGGC (sugars k3 d10 k3, PS) | 74%

What follows are sequences tested against MALAT1. Details: ASO, A431, 0.005 µM.

Row | Sequence | target mRNA inhibition
11 | AAAAAGTAGTTCTTCG (sugars k3 d10 k3, PS) | 16%
12 | AAAAGGCTCGATGGAA (sugars k3 d10 k3, PS) | 11%
13 | AAACCGATTATGGATC (sugars k3 d10 k3, PS) | 3%
14 | AAACTTGCTTACACAC (sugars k3 d10 k3, PS) | 25%
15 | AAAGAGTAACTACCAG (sugars k3 d10 k3, PS) | 22%
16 | AAAGATATTGTGCTGT (sugars k3 d10 k3, PS) | 11%
17 | AAAGTGGTTGCCCGCT (sugars k3 d10 k3, PS) | 15%
18 | AAATCGCACTGGCTCC (sugars k3 d10 k3, PS) | 6%
19 | AAATTTTTCTACCGTT (sugars k3 d10 k3, PS) | -3%
20 | AACAGTACTGCATTTA (sugars k3 d10 k3, PS) | 36%
21 | AACATATTTTGCCCCC (sugars k3 d10 k3, PS) | 22%
22 | AACATTTGGCCTACTC (sugars k3 d10 k3, PS) | 42%
23 | AACCGATTATGGATCA (sugars k3 d10 k3, PS) | 49%
24 | AACCGTAACAGGCCAC (sugars k3 d10 k3, PS) | 50%
25 | AACCTTCATGACCCTA (sugars k3 d10 k3, PS) | 20%
26 | AACGAAGAGATACCTG (sugars k3 d10 k3, PS) | 12%
27 | AACTAAATCATTGGGA (sugars k3 d10 k3, PS) | -1%
28 | AACTCCAAGAACTAGC (sugars k3 d10 k3, PS) | 30%
29 | AACTCCACAGCTCTTA (sugars k3 d10 k3, PS) | 41%
30 | AAGACCTCGACACCAT (sugars k3 d10 k3, PS) | 44%
31 | AAGAGTAACTACCAGC (sugars k3 d10 k3, PS) | 6%
32 | AAGATCGCCTTCAAAT (sugars k3 d10 k3, PS) | 49%
33 | AAGATGCTAGCTTGGC (sugars k3 d10 k3, PS) | 24%
34 | AAGCACCGCTTGAGAT (sugars k3 d10 k3, PS) | 8% and 13%

Row | Sequence | target mRNA inhibition
35 | AAGCCAAGCCGCCTGC (sugars k3 d10 k3, PS) | 29%
36 | AAGCGAATGGCTTTGT (sugars k3 d10 k3, PS) | 6%
37 | AAGCGAGTTCAAGTGG (sugars k3 d10 k3, PS) | 15%
38 | AAGGATCCAAGCTACT (sugars k3 d10 k3, PS) | 8%
39 | AAGGTTACCATAAGTA (sugars k3 d10 k3, PS) | 46%
40 | AAGTCTCGGGCTGCAG (sugars k3 d10 k3, PS) | 4%
41 | AAGTTACATGTTCCCA (sugars k3 d10 k3, PS) | 39%
42 | AATAAGCACTTATCCC (sugars k3 d10 k3, PS) | 31%
43 | AATACTTGTCTTAGCT (sugars k3 d10 k3, PS) | 41%
44 | AATAGTACTATAGCAT (sugars k3 d10 k3, PS) | 15%
45 | AATATCTTAGTAACCT (sugars k3 d10 k3, PS) | 19%
46 | AATCAAGTCAAGCTCC (sugars k3 d10 k3, PS) | 14%
47 | AATCACAAATACGACT (sugars k3 d10 k3, PS) | 23%
48 | AATCACCTACAACTTT (sugars k3 d10 k3, PS) | 26%
49 | AATCACCTTCGGTTTA (sugars k3 d10 k3, PS) | -1%
50 | AATCCCCTAGGGAAGG (sugars k3 d10 k3, PS) | 5%
51 | AATGCTAGTCCTCAGG (sugars k3 d10 k3, PS) | 57% and 78%
52 | AATGGAGGTATGACAT (sugars k3 d10 k3, PS) | 5%
53 | AATTAATGCTAGTCCT (sugars k3 d10 k3, PS) | 16%
54 | AATTACTCTTGATCTT (sugars k3 d10 k3, PS) | 51%
55 | ACAAACTGCTTACAGA (sugars k3 d10 k3, PS) | 17%
56 | ACAAGTTACATGTTCC (sugars k3 d10 k3, PS) | 21%
57 | ACAATCAAGTCAAGCT (sugars k3 d10 k3, PS) | 15%
58 | ACACCCGGAAATCGGC (sugars k3 d10 k3, PS) | 8%

Row | Sequence | target mRNA inhibition
59 | ACACTTCTCTTGACCT (sugars k3 d10 k3, PS) | 60% and 44% and 50%
60 | ACAGATTAGTAGTCAA (sugars k3 d10 k3, PS) | 9%
61 | ACAGTAGGTATAGTTT (sugars k3 d10 k3, PS) | 24%
62 | ACATGCCAGTTACTCC (sugars k3 d10 k3, PS) | 39%
63 | ACCAAATTGCACTCGC (sugars k3 d10 k3, PS) | 40%
64 | ACCAATCCCAACCGTA (sugars k3 d10 k3, PS) | 18%
65 | ACCACAACAATTTAGA (sugars k3 d10 k3, PS) | -10%
66 | ACCACCACCTGGAATG (sugars k3 d10 k3, PS) | 22%
67 | ACCACCTGGAATGGCC (sugars k3 d10 k3, PS) | 15%
68 | ACCCACCAAAGACCTC (sugars k3 d10 k3, PS) | 9%
69 | ACCCAGCATTACAGTT (sugars k3 d10 k3, PS) | 8%
70 | ACCCCTGACTTTCTGG (sugars k3 d10 k3, PS) | 18%
71 | ACCGATTATGGATCAT (sugars k3 d10 k3, PS) | 36%
72 | ACCGCTTGAGATTTGG (sugars k3 d10 k3, PS) | 32% and 41%
73 | ACCGGAATTCGATCAC (sugars k3 d10 k3, PS) | 35%
74 | ACCGTTTTTCAGCTTC (sugars k3 d10 k3, PS) | -30%
75 | ACCTGGAATGGCCAGC (sugars k3 d10 k3, PS) | 21%
76 | ACCTTAGGATAATAGC (sugars k3 d10 k3, PS) | 39%
77 | ACCTTCTAACTTCTGC (sugars k3 d10 k3, PS) | 64% and 42%
78 | ACCTTGAGTCATTTGC (sugars k3 d10 k3, PS) | 66%
79 | ACGAAACATTGGCACA (sugars k3 d10 k3, PS) | 62% and 40%
80 | ACGAAACTCCCCCATT (sugars k3 d10 k3, PS) | 36%
81 | ACGAACTGCTGCTTGC (sugars k3 d10 k3, PS) | 66% and 49% and 50%
